Where a SMILES comes first, the peptide text is derived from it. [ ]: non-standard residue; d: D form. The star is where a group is joined. DOTA = O=C(O)CN1CCN(CC(=O)O)CCN(CC(=O)*)CCN(CC(=O)O)CC1; 1Nal = N[C@@H](Cc1cccc2ccccc12)C(=O)O; NMeNle = CCCC[C@H](NC)C(=O)O
Test: in vivo
Design: species or system BALB/c nude mice
Conditions: female, BALB/c nude, mouse, iv, total radioactivity
Description: Biodistribution studies were performed in accordance with the ethical standards of the institution and approved by the Austrian Ministry of Science (BMWFW-66.011/0072-V/3b/2019). In vivo studies were carried out in 6–8-week-old female BALB/c nude mice xenografted with A431-CCK2R/A431-mock cells (Charles River, Sulzfeld, Germany; n = 4). For the induction of the tumor xenografts, 150 μL DMEM containing 2 × 10^6 A431-CCK2R and A431-mock cells were injected subcutaneously into the right and left flanks of each mouse. Tumors were allowed to grow for 10–14 days. [^68Ga]Ga-DOTA-MGS8 used in animal studies was prepared as described in the Supplementary Materials (page 2, Figures S1 and S2). To remove any hydrophilic impurities after radiolabeling, the solution was passed through a Sep-Pak® Light C18 cartridge (Waters, Milford, MA) preconditioned with ethanol and physiological saline. [^68Ga]Ga-DOTA-MGS8 was then eluted with 600 µL of a mixture of ethanol and PBS (2/1; v/v) followed by 1100 µL PBS. To this solution, 20 µL of 0.01 M bicarbonate was added for pH adjustment. The final injection solution was diluted with PBS containing 0.5% bovine serum albumin (BSA) to reach an injected radioactivity of ~200 kBq and a total injected peptide amount of ~30 pmol. [^68Ga]Ga-DOTA-MGS8 was administered in 150 µL via a lateral tail vein. The mice were euthanized 1 h p.i. by cervical spine dislocation. […] All organs, including blood and the remaining body, were weighed and their radioactivity was measured using the gamma-counter together with a standard. For the determination of radioactivity in the different tissues, a standard of 10 µL of the injection solution, as well as a 50 µL aliquot of a 1:10 and 1:50 dilution of the injection solution, were measured along with samples taken from the animals. […] The volume injected to each mouse was determined by calculating the difference in weight of the syringe before and after injection. Results were expressed as the percentage of injected activity per gram tissue (% IA/g).

tissue to tissue ratio at 1 h (Tumor-to-blood ratio): 13.4 ± 1.77 | tissue to tissue ratio at 1 h (Tumor-to-kidney ratio): 4.41 ± 0.4 | tissue to tissue ratio at 1 h (Tumor-to-stomach ratio): 11 ± 2.05
Compound: CCCC[C@@H](C(=O)N[C@@H](CC(=O)O)C(=O)N[C@@H](Cc1cccc2ccccc12)C(N)=O)N(C)C(=O)[C@H](Cc1c[nH]c2ccccc12)NC(=O)CNC(=O)[C@H](Cc1ccc(O)cc1)NC(=O)[C@@H]1CCCN1C(=O)[C@@H](CCC(=O)O)NC(=O)CN1CCN(CC(=O)O)CCN(CC(=O)O)CCN(CC(=O)O)CC1 [[^68Ga]Ga-DOTA-MGS8, metal not drawn] ({DOTA}-[dE]PYGW[NMeNle]D[1Nal]-NH2)
